Data reported in patent US6414147B1, “2-amino-9-alkylpurines: GABA brain receptor ligands” (Neurogen Corporation, priority 1998, dated 2002).

| Compound | melting point [°C] |
| --- | --- |
| CCCCn1cnc2c(OCC)nc(Nc3ccc(OC)nc3)nc21 [compound 56, 2-[(2-Methoxypyrid-5-yl)amino]-6-ethoxy-9-butyl-9H-purine] | 170 to 172 |
| CCCCn1cnc2c(OCCOC)nc(Nc3ccc(OC)nc3)nc21 [compound 57, 2-[(2-Methoxypyrid-5-yl)amino]-6-(2-methoxyethoxy)-9-butyl-9H-purine] | 138 to 140 |
| CCCCn1cnc2c(OCCF)nc(Nc3ccc(OC)nc3)nc21 [compound 58, 2-[(2-Methoxypyrid-5-yl)amino]-6-(2-fluoroethoxy)-9-butyl-9H-purine] | 163 to 164 |
| CCCCn1cnc2c(OCC(F)F)nc(Nc3ccc(OC)nc3)nc21 [compound 59, 2-[(2-Methoxypyrid-5-yl)amino]-6-(2,2-difluoroethoxy)-9-butyl-9H-purine] | 165 to 167 |
| CCCCn1cnc2c(OCC(C)C)nc(Nc3ccc(OC)nc3)nc21 [compound 60, 2-[(2-Methoxypyrid-5-yl)amino]-6-(2-methylprop-1-oxy)-9-butyl-9H-purine] | 88 to 90 |
| C=CCOc1nc(Nc2ccc(OC)nc2)nc2c1ncn2CCCC [compound 61, 2-[(2-Methoxypyrid-5-yl)amino]-6-(2-propen-1-oxy)-9-butyl-9H-purine] | 174 to 176 |
| CCCCn1cnc2c(OCC3CCCO3)nc(Nc3ccc(OC)nc3)nc21 (stereo not drawn) [compound 62, 2-[(2-Methoxypyrid-5-yl)amino]-6-tetrahydrofurfuryloxy-9-butyl-9H-purine] | 147 to 149 |
| CCCCn1cnc2c(OCc3ccccn3)nc(Nc3ccc(OC)nc3)nc21 [compound 63, 2-[(2-Methoxypyrid-5-yl)amino]-6-(pyrid-2-ylmethoxy)-9-butyl-9H-purine] | 150 to 153 |
| CCCCn1cnc2c(Oc3ccccc3)nc(Nc3ccc(OC)nc3)nc21 [compound 64, 2-[(2-Methoxypyrid-5-yl)amino]-6-phenoxy-9-butyl-9H-purine] | 146 to 148 |
| CCCn1cnc2c(OCC(C)C)nc(Nc3ccc(OC)nc3)nc21 [compound 65, 2-[(2-Methoxypyrid-5-yl)amino]-6-(2-methylprop-1-oxy)-9-propyl-9H-purine] | 113 to 115 |
| CCCn1cnc2c(Oc3ccccc3)nc(Nc3ccc(OC)nc3)nc21 [compound 66, 2-[(2-Methoxypyrid-5-yl)amino]-6-phenoxy-9-propyl-9H-purine] | 188 to 190 |
| C=C(C)COc1nc(Nc2ccc(OC)nc2)nc2c1ncn2CCCC [compound 67, 2-[(2-Methoxypyrid-5-yl)amino]-6-(2-methyl-2-propen-1-oxy)-9-butyl-9H-purine] | 131 to 133 |
| CCCCn1cnc2c(OCC3CC3)nc(Nc3ccc(OC)nc3)nc21 [compound 68, 2-[(2-Methoxypyrid-5-yl)amino]-6-cyclopropylmethoxy-9-butyl-9H-purine] | 148 to 150 |
| C=CCSc1nc(Nc2ccc(OC)nc2)nc2c1ncn2CCCC [compound 69, 2-[(2-Methoxypyrid-5-yl)amino]-6-allylthio-9-butyl-9H-purine] | 107 to 109 |
| CCCCn1cnc2c(OCC)nc(Nc3ccc(OCC)nc3)nc21 [compound 71, 2-[(2-Ethoxypyrid-5-yl)amino]-6-ethoxy-9-butyl-9H-purine] | 167 to 169 |
| CCCCn1cnc2c(OCCOC)nc(Nc3ccc(OCC)nc3)nc21 [compound 72, 2-[(2-Ethoxypyrid-5-yl)amino]-6-(2-methoxyethoxy)-9-butyl-9H-purine] | 123 to 125 |
| C=CCOc1nc(Nc2ccc(OCC)nc2)nc2c1ncn2CCCC [compound 73, 2-[(2-Ethoxypyrid-5-yl)amino]-6-(2-propen-1-oxy)-9-butyl-9H-purine] | 158 to 160 |
| CCCCn1cnc2c(OCCF)nc(Nc3ccc(OCC)nc3)nc21 [compound 74, 2-[(2-Ethoxypyrid-5-yl)amino]-6-(2-fluoroethoxy)-9-butyl-9H-purine] | 156 to 157 |

| Compound | melting point [°C] |
| --- | --- |
| C=C(C)COc1nc(Nc2ccc(OCC)nc2)nc2c1ncn2CCCC [compound 75, 2-[(2-Ethoxypyrid-5-yl)amino]-6-(2-methyl-2-propen-1-oxy)-9-butyl-9H-purine] | 108 to 110 |
| CCCCn1cnc2c(OCc3cccs3)nc(Nc3ccc(OCC)nc3)nc21 [compound 76, 2-[(2-Ethoxypyrid-5-yl)amino]-6-(thien-2-ylmethoxy)-9-butyl-9H-purine] | 116 to 118 |
| C=C(C)COc1nc(Nc2ccc(OCC)nc2)nc2c1ncn2CCC [compound 77, 2-[(2-Ethoxypyrid-5-yl)amino]-6-(2-methyl-2-propen-1-oxy)-9-propyl-9H-purine] | 112 to 114 |
| C#CCOc1nc(Nc2ccc(OCC)nc2)nc2c1ncn2CCCC [compound 78, 2-[(2-Ethoxypyrid-5-yl)amino]-6-(2-propyn-1-oxy)-9-butyl-9H-purine] | 151 to 153 |
| CCCCn1cnc2c(OCC(F)F)nc(Nc3ccc(OCC)nc3)nc21 [compound 80, 2-[(2-Ethoxypyrid-5-yl)amino]-6-(2,2-difluoroethoxy)-9-butyl-9H-purine] | 151 to 152 |
| CCCCn1cnc2c(OCC(=O)OCC)nc(Nc3ccc(OCC)nc3)nc21 [compound 82, 2-[(2-Ethoxypyrid-5-yl)amino]-6-carboethoxymethoxy-9-butyl-9H-purine] | 77 to 80 |
| CCCCn1cnc2c(OCC(C)C)nc(Nc3ccc(OCC)nc3)nc21 [compound 83, 2-[(2-Ethoxypyrid-5-yl)amino]-6-(2-methylprop-1-oxy)-9-butyl-9H-purine] | 96 to 98 |
| CCCCn1cnc2c(OCCO)nc(Nc3ccc(OCC)nc3)nc21 [compound 84, 2-[(2-Ethoxypyrid-5-yl)amino]-6-(2-hydroxyethoxy)-9-butyl-9H-purine] | 166 to 168 |
| CCCCn1cnc2c(OCC)nc(Nc3cnc4ccccc4c3)nc21 [compound 86, 2-[(Quinolin-3-yl)amino]-6-ethoxy-9-butyl-9H-purine] | 186 to 188 |
| CCCCn1cnc2c(OCCC)nc(Nc3cnc4ccccc4c3)nc21 [compound 87, 2-[(Quinolin-3-yl)amino]-6-propoxy-9-butyl-9H-purine] | 215 to 220 |
| CCCCn1cnc2c(OCCOC)nc(Nc3cnc4ccccc4c3)nc21 [compound 88, 2-[(Quinolin-3-yl)amino]-6-(2-methoxyethoxy)-9-butyl-9H-purine] | 161 to 163 |
| CCCCn1cnc2c(OCC(C)C)nc(Nc3cnc4ccccc4c3)nc21 [compound 89, 2-[(Quinolin-3-yl)amino]-6-(2-methylprop-1-oxy)-9-butyl-9H-purine] | 68 to 71 |
| C=C(C)COc1nc(Nc2cnc3ccccc3c2)nc2c1ncn2CCCC [compound 91, 2-[(Quinolin-3-yl)amino]-6-(2-methyl-2-propen-1-oxy)-9-butyl-9H-purine] | 106 to 108 |
| C=CCOc1nc(Nc2cnc3ccccc3c2)nc2c1ncn2CCCC [compound 92, 2-[(Quinolin-3-yl)amino]-6-(2-propen-1-oxy)-9-butyl-9H-purine] | 188 to 192 |
| CCCCn1cnc2c(OCCF)nc(Nc3cnc4ccccc4c3)nc21 [compound 93, 2-[(Quinolin-3-yl)amino]-6-(2-fluoroethoxy)-9-butyl-9H-purine] | 181 to 183 |
| CCCCn1cnc2c(OC)nc(Nc3ccc4c(c3)OCO4)nc21 [compound 95, 2-[(3,4-Methylenedioxyphenyl)amino]-6-methoxy-9-butyl-9H-purine] | 160 to 161 |
| CCCCn1cnc2c(OCC)nc(Nc3ccc4ncsc4c3)nc21 [compound 96, 2-[(Benzothiazol-6-yl)amino]-6-ethoxy-9-butyl-9H-purine] | 150 to 152 |
| CCCCn1cnc2c(OCC)nc(NCc3ccc(OC)cc3)nc21 [compound 97, 2-[(4-Methoxybenzyl)amino]-6-ethoxy-9-butyl-9H-purine] | 129 to 130 |
